Test results published in patent US9896423B2, “Deuterium substituted 1-[2-(2,4-dimethyl-phenylsulfanyl)-phenyl]piperazine compound or derivatives thereof, and pharmaceutical composition and use thereof” (Jiangsu Jibeier Pharmaceutical Co. Ltd., priority 2014, dated 2018).
“And” between values parts separate entries of the source, which are not always exact repeats. Equal values may be shown once. Read-outs that look alike come from different tables or passages of the source.

Columns and labels:
[1] = system: Male ICR mice; assay: Mice swimming test; assay type: in vivo
From the text: The following method is used for testing the antidepression effect of the compound of the present application. ICR mice or SD rats, gavaged for two successive weeks, were subjected to mice swimming test, mice tail suspension test and rats swimming test. See below for details of the tests and results.
Male ICR mice weighing 18 g to 20 g were used. They were fed on sterilized standard feed.
The compound administered in the test was 1-{2-[2,4-bis(trideuteriomethyl)phenylsulfanyl]phenyl}piperazine hydrobromic acid salt (XX for short). Vortioxetine (YY for short) was used as a control sample. Venlafaxine HCl (from Wyeth, USA) was used as a positive control.
Vortioxetine (15 mg) was combined with 10% hydroxypropyl-β-cyclodextrin to form a solution of 100 mL and was administered at daily dose of 3 mg/kg. 1-{2-[2,4-bis(trideuteriomethyl)phenylsulfanyl]phenyl}piperazine hydrobromic acid salt (15 mg and 7.5 mg) was combined with 10% hydroxypropyl-β-cyclodextrin to form two solutions of 100 mL and was administered at daily doses of 3 mg/kg and 1.5 mg/kg, respectively. Venlafaxine HCl (75 mg) was combined with 0.5% CMC-Na to form a solution of 100 mL and was administered at daily dose of […].
A recording and analysis system for small-animal behavior (Noldus) was used.
All the eighty mice were subjected to prescreening one day before the administration. The mice, fasted for 4 hours were put in a round glass tank (ø 14 cm×h 20 cm, with water of 10 cm depth and at a temperature of 25° C.) to swim. […] The whole swimming course was recorded by the video and the data were collected and analyzed automatically by Noldus software.
The forty qualified mice were divided into 4 groups, each of which had 10 mice, according to the Excel random grouping.
The medicaments were administered to each group by gavage with the amount of 0.2 ml per 10 g of body weight, once a day for 14 successive days. One hour later after the last oral administration, the mice were allowed to swim for 6 min. The video recorded the whole swimming course, and the Noldus software automatically collected and analyzed the data.
The data was given as “average±standard deviation” (x±s). One-way analysis of variance (one-way ANOVA) was used for data difference statistics. Differences among the groups were determined by P<0.05.

[2] = Pharmacokinetic test in rats, intravenous injection; assay type: in vivo, SD rats; conditions: for Concentrations in Plasma of Rats after Intravenous Injection / concentration at 0.05 h / concentration at 0.133 h / concentration at 4 h / concentration at 6 h / concentration at 9 h / concentration at 12 h / concentration at 24 h / concentration at 0.25 h / concentration at 0.5 h / concentration at 1 h / concentration at 2 h / concentration at 3 h: 2 mg/kg iv; for concentration at 0.05 h / concentration at 0.133 h / concentration at 4 h / concentration at 6 h / concentration at 9 h / concentration at 12 h / concentration at 24 h / concentration at 0.25 h / concentration at 0.5 h / concentration at 1 h / concentration at 2 h / concentration at 3 h: intravenous; for concentration at 0.25 h / concentration at 0.5 h / concentration at 1 h / concentration at 2 h / concentration at 3 h: Sprague-Dawley
Method: The preferred compound of the present disclosure was assessed in rats for its pharmacokinetic profile.
SD rats, male and female, weighing 150 to 250 g
Mobile phase: 10 mM ammonium formate aqueous solution:methanol=15:85
The ionization source was electrospray ionization source. The detection mode was positive mode. Multiple reaction monitoring (MRM) was used as the scanning mode. The ion reaction for the quantitative analysis was the following: m/z was 305.2\150.0 for XX, and 256.1\167.1 for diphenhydramine (the internal standard).
Four male SD rats were taken. The dosage was calculated as 5 mL/kg body weight and 2 mg/kg. XX or YY was dissolved in DMSO (3% of a total volume) and castor oil (3% of the total volume) was added to the solution, followed by agitating with a vortex mixer. Subsequently, saline was added to the mixture to the total volume to afford the intravenous injection for the rats. The injections were intravenously administered to four male SD rats. Blood from the rats' orbits was collected 3 min, 8 min, 15 min, 30 min, 1 hr, 2 hr, 3 hr, 4 hr, 6 hr, 9 hr, 12 hr and 24 hr later after the injection, respectively.
After the blood collection, the tubes were immediately gently turned upside down at least five times to ensure sufficient mixing, and placed on ice. Heparin was added for anticoagulation. The samples were centrifuged at 8000 rpm for 5 min to separate serum from erythrocyte. The serum was transferred with a pipettor to 2 mL polypropylene (PP) tubes, which were marked with the name of the compound and the time points, and stored in a refrigerator at −40° C. before LC-MS analysis. Samples with high concentrations were diluted with rat blank plasma.
2.5 μL of Meth-H2O and 5 μL of the internal standard solution (20 ng/mL, IS) were added to 50 μL of the plasma. Subsequently, 150 μL of methanol was added to the mixture to precipitate protein and the samples were then centrifuged at 13000 rpm for 5 min. The upper organic phase was taken out, filtrated with a 0.22 μM microporous membrane, and 2 μL of the sample was injected for the LC-MS analysis.

[3] = rats, iv 2 mg/kg, individual rats, 2 mg/kg

## Cc1ccc(Sc2ccccc2N2CCNCC2)c(C)c1 [YY, 1-[2-(2,4-dimethyl-phenylsulfanyl)-phenyl]piperazine]
[1]; 3 mg/kg gavage, two successive weeks
  effect on length of time that the mice stopped swimming vs blank control: did not shorten
[1]; mice, gavage once a day for 14 days, 3 mg/kg, n = 10, x ± s
  Duration without Movement within the Last 4 min of the Whole 6 min: 199.6 ± 26.1 s
[2]; 0.05 h after administration, individual rats
  Concentrations in Plasma of Rats after Intravenous Injection: 123.2 ng/mL and 127.2 ng/mL
[2]; 0.133 h, individual rats
  Concentrations in Plasma of Rats after Intravenous Injection: 89 ng/mL and 85.9 ng/mL
[2]; 0.25 h, individual rats
  Concentrations in Plasma of Rats after Intravenous Injection: 78.8 ng/mL and 77.3 ng/mL
[2]; 0.5 h, individual rats
  Concentrations in Plasma of Rats after Intravenous Injection: 76.9 ng/mL and 71.3 ng/mL
[2]; 1 h, individual rats
  Concentrations in Plasma of Rats after Intravenous Injection: 73.3 ng/mL and 68.6 ng/mL
[2]; 2 h, individual rats
  Concentrations in Plasma of Rats after Intravenous Injection: 69.5 ng/mL and 68.1 ng/mL
[2]; 3 h, individual rats
  Concentrations in Plasma of Rats after Intravenous Injection: 53.4 ng/mL and 49.8 ng/mL
[2]; 4 h, individual rats
  Concentrations in Plasma of Rats after Intravenous Injection: 38.5 ng/mL and 27.6 ng/mL
[2]; 6 h, individual rats
  Concentrations in Plasma of Rats after Intravenous Injection: 28.4 ng/mL and 25.8 ng/mL
[2]; 9 h, individual rats
  Concentrations in Plasma of Rats after Intravenous Injection: 16.1 ng/mL and 18.6 ng/mL
[2]; 12 h, individual rats
  Concentrations in Plasma of Rats after Intravenous Injection: 7.86 ng/mL and 7.50 ng/mL
[2]; 24 h, individual rats
  Concentrations in Plasma of Rats after Intravenous Injection: 2.57 ng/mL and 2.89 ng/mL
[2]; male, SD, rat, plasma, 2 mg/kg, 0.05 h, mean, read-out: Concentrations in Plasma of Rats after Intravenous Injection, Mean ± SD
  concentration at 0.05 h: 214 ± 38.9 ng/mL
[2]; male, SD, rat, plasma, 2 mg/kg, 0.05 h after administration, individual rats, read-out: Concentrations in Plasma of Rats after Intravenous Injection
  concentration at 0.05 h: 134 ng/mL
[2]; male, SD, rat, plasma, 2 mg/kg, 0.133 h, individual rats, read-out: Concentrations in Plasma of Rats after Intravenous Injection
  concentration at 0.133 h: 86.5 ng/mL
[2]; male, SD, rat, plasma, 2 mg/kg, 0.133 h, mean, read-out: Concentrations in Plasma of Rats after Intravenous Injection, Mean ± SD
  concentration at 0.133 h: 170 ± 7.8 ng/mL
[2]; male, SD, rat, plasma, 2 mg/kg, 4 h, individual rats, read-out: Concentrations in Plasma of Rats after Intravenous Injection
  concentration at 4 h: 27.2 ng/mL
[2]; male, SD, rat, plasma, 2 mg/kg, 4 h, mean, read-out: Concentrations in Plasma of Rats after Intravenous Injection, Mean ± SD
  concentration at 4 h: 40.9 ± 3.4 ng/mL
[2]; male, SD, rat, plasma, 2 mg/kg, 6 h, individual rats, read-out: Concentrations in Plasma of Rats after Intravenous Injection
  concentration at 6 h: 25.8 ng/mL
[2]; male, SD, rat, plasma, 2 mg/kg, 6 h, mean, read-out: Concentrations in Plasma of Rats after Intravenous Injection, Mean ± SD
  concentration at 6 h: 33.1 ± 3.43 ng/mL
[2]; male, SD, rat, plasma, 2 mg/kg, 9 h, individual rats, read-out: Concentrations in Plasma of Rats after Intravenous Injection
  concentration at 9 h: 14.9 ng/mL
[2]; male, SD, rat, plasma, 2 mg/kg, 9 h, mean, read-out: Concentrations in Plasma of Rats after Intravenous Injection, Mean ± SD
  concentration at 9 h: 19.5 ± 1.49 ng/mL
[2]; male, SD, rat, plasma, 2 mg/kg, 12 h, individual rats, read-out: Concentrations in Plasma of Rats after Intravenous Injection
  concentration at 12 h: 8.44 ng/mL
[2]; male, SD, rat, plasma, 2 mg/kg, 12 h, mean, read-out: Concentrations in Plasma of Rats after Intravenous Injection, Mean ± SD
  concentration at 12 h: 7.85 ± 0.62 ng/mL
[2]; male, SD, rat, plasma, 2 mg/kg, 24 h, individual rats, read-out: Concentrations in Plasma of Rats after Intravenous Injection
  concentration at 24 h: 3.38 ng/mL
[2]; male, SD, rat, plasma, 2 mg/kg, 24 h, mean, read-out: Concentrations in Plasma of Rats after Intravenous Injection, Mean ± SD
  concentration at 24 h: 4.07 ± 0.05 ng/mL
[2]; male, SD, rat, plasma, iv, 2 mg/kg, rats, iv 2 mg/kg, XX n = 4, YY n = 3, read-out: AUC0-∞, Mean ± SD
  AUC(0-inf): 654 ± 23.9 ng·h/mL
[2]; male, SD, rat, plasma, iv, 2 mg/kg, rats, iv 2 mg/kg, XX n = 4, YY n = 3, read-out: Cmax, Mean ± SD
  Cmax: 214 ± 38.9 ng/mL
[2]; male, SD, rat, plasma, iv, 2 mg/kg, rats, iv 2 mg/kg, XX n = 4, YY n = 3, read-out: MRT0-∞, Mean ± SD
  MRT inf: 6.42 ± 0.19 h
[2]; male, SD, rat, plasma, iv, 2 mg/kg, rats, iv 2 mg/kg, XX n = 4, YY n = 3, read-out: Vz, Mean ± SD
  Vd: 26.6 ± 0.52 L/kg
[2]; male, SD, rat, plasma, iv, 2 mg/kg, rats, iv 2 mg/kg, XX n = 4, YY n = 3, read-out: t1/2, Mean ± SD (converted)
  half-life: 6.03 ± 0.27 h
[2]; male, SD, rat, plasma, iv, 2 mg/kg, rats, iv 2 mg/kg, individual rats 1-3 (Table 11), read-out: AUC0-t
  AUC(0-t): 594 ng·h/mL
[2]; male, SD, rat, plasma, iv, 2 mg/kg, rats, iv 2 mg/kg, individual rats, read-out: AUC0-∞
  AUC(0-inf): 628 ng·h/mL
[2]; male, SD, rat, plasma, iv, 2 mg/kg, rats, iv 2 mg/kg, individual rats, read-out: Cmax
  Cmax: 225 ng/mL
[2]; male, SD, rat, plasma, iv, 2 mg/kg, rats, iv 2 mg/kg, individual rats, read-out: MRT0-∞
  MRT inf: 6.56 h
[2]; male, SD, rat, plasma, iv, 2 mg/kg, rats, iv 2 mg/kg, individual rats, read-out: Vz
  Vd: 26.3 L/kg
[2]; male, SD, rat, plasma, iv, 2 mg/kg, rats, iv 2 mg/kg, individual rats, read-out: t1/2 (converted)
  half-life: 5.72 h
[2]; male, SD, rat, plasma, iv, 2 mg/kg, rats, iv 2 mg/kg, n = 3 (Table 11), read-out: AUC0-t, Mean ± SD
  AUC(0-t): 619 ± 22.2 ng·h/mL
[2]; male, rat, plasma, 2 mg/kg, 0.25 h, individual rats, read-out: Concentrations in Plasma of Rats after Intravenous Injection
  concentration at 0.25 h: 78.1 ng/mL
[2]; male, rat, plasma, 2 mg/kg, 0.25 h, mean, read-out: Concentrations in Plasma of Rats after Intravenous Injection, Mean ± SD
  concentration at 0.25 h: 137 ± 6.05 ng/mL
[2]; male, rat, plasma, 2 mg/kg, 0.5 h, individual rats, read-out: Concentrations in Plasma of Rats after Intravenous Injection
  concentration at 0.5 h: 76.6 ng/mL
[2]; male, rat, plasma, 2 mg/kg, 0.5 h, mean, read-out: Concentrations in Plasma of Rats after Intravenous Injection, Mean ± SD
  concentration at 0.5 h: 124 ± 13 ng/mL
[2]; male, rat, plasma, 2 mg/kg, 1 h, individual rats, read-out: Concentrations in Plasma of Rats after Intravenous Injection
  concentration at 1 h: 72.2 ng/mL
[2]; male, rat, plasma, 2 mg/kg, 1 h, mean, read-out: Concentrations in Plasma of Rats after Intravenous Injection, Mean ± SD
  concentration at 1 h: 94.2 ± 6.06 ng/mL
[2]; male, rat, plasma, 2 mg/kg, 2 h, individual rats, read-out: Concentrations in Plasma of Rats after Intravenous Injection
  concentration at 2 h: 60.7 ng/mL
[2]; male, rat, plasma, 2 mg/kg, 2 h, mean, read-out: Concentrations in Plasma of Rats after Intravenous Injection, Mean ± SD
  concentration at 2 h: 86.4 ± 16.8 ng/mL
[2]; male, rat, plasma, 2 mg/kg, 3 h, individual rats, read-out: Concentrations in Plasma of Rats after Intravenous Injection
  concentration at 3 h: 49.6 ng/mL
[2]; male, rat, plasma, 2 mg/kg, 3 h, mean, read-out: Concentrations in Plasma of Rats after Intravenous Injection, Mean ± SD
  concentration at 3 h: 67 ± 10.2 ng/mL
[2]; rats, iv 2 mg/kg, XX n = 4, YY n = 3
  CL, Mean ± SD: 3.06 ± 0.11 L/h/k
[2]; rats, iv 2 mg/kg, individual rats 1-3 (Table 11), 2 mg/kg
  AUC(0-t): 637.9 ng·h/mL and 624.3 ng·h/mL
[2]; [3]
  AUC0-∞: 674.6 ng·h/mL and 660.5 ng·h/mL
  CL: 3.19 L/h/k and 2.97 L/h/k and 3.03 L/h/k
  Cmax: 246.0 ng/mL and 170.6 ng/mL
  MRT0-∞: 6.20 h and 6.50 h
  Vz: 27.2 L/kg
  t1/2: 6.15 h and 6.22 h
